{
  "source": "patent US20220288001A1",
  "about": "“CREATINE FOR IMMUNOTHERAPY” (The Regents of the University of California, priority 2019, published 2022)",
  "type_in_all_cases": "cell-based, mouse",
  "key": {"AMPK": {"test_system": "AMPK", "assay": "Western blot of AMPK and TCR signaling events in CD8 T cells with AICAR treatment", "method": "In some other experiments, AICAR (5-aminoimidazole-4-carboxamide 1-β-D-ribofuranoside, Cat #A9978, Sigma-Aldrich), an AMPK activator, was reconstituted in DMSO and used to pretreat T cells for 30 minutes, at the concentration of 2 mM followed by 20 minutes of anti-CD3 stimulation for western blot analysis of TCR signaling events, or at the concentration of 250 μM followed by 16 hours of anti-CD3 stimulation for flow cytometry analysis of CD25 expression and ELISA analysis of IL-2 production.\nTotal protein was extracted using RIPA lysis buffer (Thermo Fisher Scientific) supplemented with a phosphatase inhibitor cocktail (Sigma-Aldrich) and a protease inhibitor cocktail (Roche) following the manufacturers' instructions. Nuclear protein was extracted using a Nuclear Protein Extraction Kit (Thermo Fisher Scientific) following the manufacturer's instructions, or using homemade reagents (10 mM HEPES pH 7.9, 10 mM KCl, 0.34 M sucrose, 10% glycerol, 1 mM DTT, 0.1% Triton X-100, 1.5 mM MgCl2 and protease inhibitor cocktail) following a previously established protocol (Ma et al., 2019). Protein concentration was measured by a BCA assay (Cat #23228 and Cat #1859078, Thermo Fisher Scientific). Equal amounts of protein were resolved on a 12% SDS-PAGE gel and then transferred to a PVDF membrane by electrophoresis. The following anti-mouse antibodies were purchased from Cell Signaling Technology and used to blot for the protein of interest: p-Zap-70 (cat #2705S; clone 99F2); Zap-70 (cat #2717S; clone Y319); p-Lck (cat #2751S; clone Y505); Lck (cat #2752S); p-c-Jun (cat #9261S; clone S63); NFAT (cat #4389S); NF-κB p65 (cat #8242P; clone D14E12); AMPK (cat #5831T; clone D5A2); p-AMPK (cat #2535T; clone 40H9), secondary anti-mouse (cat #7076P2), and secondary anti-rabbit (cat #7074P2). Anti-mouse CrT (SLC6A8) (cat #PA5-37060) was purchased from Thermo Fisher Scientific. β-Actin (Santa Cruz Biotechnology Inc.; cat #sc-69879; clone AC-15) was used as an internal control for total protein extracts, while Lamin A (Santa Cruz Biotechnology; cat #sc-71481; clone 4A58) was used as an internal control for nuclear protein extracts. Signals were visualized with autoradiography using an ECL system (Cat #RPN2232, Thermo Fisher Scientific). Data analysis was performed using ImageJ software (NIH)."}, "CD8 T cells [1]": {"test_system": "CD8 T cells", "assay": "CD8 T cell activation with AICAR treatment (CD25 flow cytometry, IL-2 ELISA)", "conditions": "CrT-WT and CrT-KO CD8 T cells; AICAR 250 μM; anti-CD3 16 hours", "method": "CD8 T cells were cultured in vitro in standard T cell culture medium comprising RPMI 1640 (Cat #10040, Corning), 10% FBS (Cat #F2442, Sigma), 1% Penicillin-Streptomycin-Glutamine (Cat #10378016, Gibco), 1% MEM Non-Essential Amino Acids Solution (Cat #11140050, Gibco), 1% HEPES (Cat #15630080, Gibco), 1% Sodium Pyruvate (100 mM) (Cat #11360070, Gibco), and 0.05 mM β -Mercaptoethanol (Cat #M3148, Sigma). Unless otherwise indicated, cells were seeded at 0.5×10^6 cells per well in 24-well plates and stimulated with plate-bound anti-CD3 (5 μg/ml) (clone 145-2C11), for up to 5 days. At indicated time point(s), cells were collected and analyzed for CrT mRNA expression using qPCR, for cell proliferation through cell counting, for viability through Annexin V/7-AAD staining followed by flow cytometry analysis, for surface activation marker (CD25) expression through surface staining followed by flow cytometry analysis, for effector molecule (Granzyme B, IL-2, and IFN-γ) production through intracellular staining followed by flow cytometry analysis, and for cytokine (IL-2 and IFN-γ) secretion through collecting cell culture supernatants followed by ELISA analysis. CrT protein expression and TCR signaling events were analyzed using western blot analysis. […]"}, "TCR signaling": {"test_system": "TCR signaling", "assay": "Western blot of TCR signaling events in CrT-KO CD8 T cells with ATP supplementation", "conditions": "ATP 100 μM, restimulated with anti-CD3 30 minutes", "method": "(§1) In some experiments, ATP (adenosine-5′-triphosphate disodium salt hydrate, Cat #A6419, Sigma-Aldrich) was reconstituted in sterile PBS and added to T cell culture (100 μM) for two to three days along with anti-CD3 stimulation, followed by analyzing T cell surface activation marker (CD25) expression using flow cytometry, and analyzing effector cytokine (IFN-γ) secretion using ELISA. In some experiments, T cells were stimulated with anti-CD3 for 48 hours, rested at 4° C. for 2 hours, then restimulated with anti-CD3 for 30 minutes in the presence or absence of ATP supplementation (100 μM) followed by analyzing TCR signaling events using western blot.\nTotal protein was extracted using RIPA lysis buffer (Thermo Fisher Scientific) supplemented with a phosphatase inhibitor cocktail (Sigma-Aldrich) and a protease inhibitor cocktail (Roche) following the manufacturers' instructions. Nuclear protein was extracted using a Nuclear Protein Extraction Kit (Thermo Fisher Scientific) following the manufacturer's instructions, or using homemade reagents (10 mM HEPES pH 7.9, 10 mM KCl, 0.34 M sucrose, 10% glycerol, 1 mM DTT, 0.1% Triton X-100, 1.5 mM MgCl2 and protease inhibitor cocktail) following a previously established protocol (Ma et al., 2019). Protein concentration was measured by a BCA assay (Cat #23228 and Cat #1859078, Thermo Fisher Scientific). […]"}, "CD8 T cells [2]": {"test_system": "CD8 T cells", "assay": "CD8 T cell activation in vitro with ATP supplementation (CD25 flow cytometry, IFN-γ ELISA)", "conditions": "ATP 100 μM, anti-CD3", "method": "CD8 T cells were cultured in vitro in standard T cell culture medium comprising RPMI 1640 (Cat #10040, Corning), 10% FBS (Cat #F2442, Sigma), 1% Penicillin-Streptomycin-Glutamine (Cat #10378016, Gibco), 1% MEM Non-Essential Amino Acids Solution (Cat #11140050, Gibco), 1% HEPES (Cat #15630080, Gibco), 1% Sodium Pyruvate (100 mM) (Cat #11360070, Gibco), and 0.05 mM β -Mercaptoethanol (Cat #M3148, Sigma). Unless otherwise indicated, cells were seeded at 0.5×10^6 cells per well in 24-well plates and stimulated with plate-bound anti-CD3 (5 μg/ml) (clone 145-2C11), for up to 5 days. At indicated time point(s), cells were collected and analyzed for CrT mRNA expression using qPCR, for cell proliferation through cell counting, for viability through Annexin V/7-AAD staining followed by flow cytometry analysis, for surface activation marker (CD25) expression through surface staining followed by flow cytometry analysis, for effector molecule (Granzyme B, IL-2, and IFN-γ) production through intracellular staining followed by flow cytometry analysis, and for cytokine (IL-2 and IFN-γ) secretion through collecting cell culture supernatants followed by ELISA analysis. CrT protein expression and TCR signaling events were analyzed using western blot analysis.\nas §1\nELISA was performed for the detection of cytokines according to a BD Biosciences protocol. […] The absorbance was measured at 450 nm using an Infinite M1000 microplate reader (Tecan)."}},
  "note": "“Also recorded” adds a separate entry of the source.",
  "data": [
    {"smiles": "NC(=O)c1ncn([C@@H]2O[C@H](CO)[C@@H](O)[C@H]2O)c1N", "note": "[AICAR, 5-aminoimidazole-4-carboxamide 1-β-D-ribofuranoside]", "values": [
      {"measurement": "activation of NFAT", "setting": "AMPK; CD8 T cells, AICAR 2 mM", "value": "not affected"},
      {"measurement": "activation of Zap-70", "setting": "AMPK; CD8 T cells, AICAR 2 mM", "value": "not affected"},
      {"measurement": "AP-1 transcription factor activation (c-Jun subunit)", "setting": "AMPK; CrT-WT and CrT-KO CD8 T cells, AICAR 2 mM", "value": "significant reduction"},
      {"measurement": "AMPK activation", "setting": "AMPK; CrT-WT and CrT-KO CD8 T cells, AICAR 2 mM pretreatment 30 minutes", "value": "markedly activated AMPK"},
      {"measurement": "cell surface activation marker expression (CD25)", "setting": "CD8 T cells [1]", "value": "significant reduction"},
      {"measurement": "effector cytokine production (IL-2)", "setting": "CD8 T cells [1]", "value": "significant reduction"}
    ]},
    {"smiles": "Nc1ncnc2c1ncn2[C@@H]1O[C@H](COP(=O)([O-])OP(=O)([O-])OP(=O)(O)O)[C@@H](O)[C@H]1O.O.[Na+].[Na+]", "note": "[ATP, adenosine-5′-triphosphate disodium salt hydrate]", "values": [
      {"measurement": "TCR signaling deficiencies", "setting": "TCR signaling", "value": "effectively rescued"},
      {"measurement": "effector cytokine IFN-γ production", "setting": "CD8 T cells [2]; CrT-KO CD8 T cells, day 3", "value": "enhanced production"},
      {"measurement": "surface activation marker CD25 expression", "setting": "CD8 T cells [2]; CrT-KO CD8 T cells, day 3", "value": "increased expression"},
      {"measurement": "activation of CD8 T cells (CD25)", "setting": "CD8 T cells [2]; CrT-WT CD8 T cells, 48 hours, disodium salt hydrate", "value": "further increased the activation; also recorded: further enhanced the activation"}
    ]}
  ]
}
